The values below come from paper PMC5371393 (Journal of Medicinal Chemistry, 2016).

Data set [1] deals with nucleotide-binding domain (NBD) of human HSC70 (HSC70-NBD residues 1–381) (Homo sapiens, UniProt P11142). Put plainly: SPR affinity against immobilised HSC70-NBD. The note with it: for fold improvement in affinity compared to 8-N-methylaminoadenosine 4: comparator 4 (Table 1, entry 2); for binding / affinity in words: SPR, HSC70-NBD, concentrations up to 1 mM; for fold increase in affinity compared to adenosine 1: comparator adenosine 1.

The target in a further data set is HSP70. As to conditions: previously described affinity of ADP for HSP70; cited from earlier work.

SMILES strings stand for the structures. pKd: −log10 of the molar value.

Chain of nucleotide-binding domain (NBD) of human HSC70 (HSC70-NBD residues 1–381) (P11142 1-381): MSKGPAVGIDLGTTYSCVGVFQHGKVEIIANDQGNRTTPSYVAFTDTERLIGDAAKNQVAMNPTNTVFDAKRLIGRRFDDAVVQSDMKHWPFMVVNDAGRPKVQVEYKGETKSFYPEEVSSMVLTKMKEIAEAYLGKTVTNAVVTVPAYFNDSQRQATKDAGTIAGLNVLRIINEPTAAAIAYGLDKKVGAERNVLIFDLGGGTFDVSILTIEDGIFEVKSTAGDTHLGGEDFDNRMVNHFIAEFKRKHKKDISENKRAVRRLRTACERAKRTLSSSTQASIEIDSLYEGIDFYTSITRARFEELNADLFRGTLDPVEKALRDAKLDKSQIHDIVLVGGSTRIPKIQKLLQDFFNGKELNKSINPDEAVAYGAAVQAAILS

With `CNc1nc2c(N)ncnc2n1[C@@H]1O[C@H](CO)[C@@H](O)[C@H]1O` [Compound 4, (2R,3R,4S,5R)-2-(6-Amino-8-(methylamino)-9H-purin-9-yl)-5-(hydroxymethyl)tetrahydrofuran-3,4-diol], the “fold drop in affinity compared to 8-aminoadenosine 3” value in data set [1] (SPR KD, comparator 3) is 2.5 fold.

Regarding `Nc1ncnc2c1nc(NCc1ccc(Cl)cc1)n2[C@@H]1O[C@H](CO)[C@@H](O)[C@H]1O` [Compound 18, (2R,3R,4S,5R)-2-(6-Amino-8-((4-chlorobenzyl)amino)-9H-purin-9-yl)-5-(hydroxymethyl)tetrahydrofuran-3,4-diol], in data set [1] (SPR KD), the “fold improvement in affinity compared to 8-N-methylaminoadenosine 4” value was found to be 60 fold. Also, the “fold improvement in affinity compared to compound 15” value in data set [1] (SPR KD, comparator 15) stood at 5 fold.

As to `CNc1c(C#N)c2c(N)ncnc2n1[C@@H]1O[C@H](CO)[C@@H](O)[C@H]1O` [Compound 12, 4-Amino-7-((2R,3R,4S,5R)-3,4-dihydroxy-5-(hydroxymethyl)tetrahydrofuran-2-yl)-6-(methylamino)-7H-pyrrolo[2,3-d]pyrimidine-5-carbonitrile], in data set [1] (SPR KD), the “fold improvement in affinity compared to 8-N-methylaminoadenosine 4” value turned out to be 5 fold. Moreover, the “fold improvement in activity compared to toyocamycin 9” value in data set [1] (SPR KD, comparator 9) is reported as 27 fold.

Turning to `N#Cc1c(NCc2ccccc2)n([C@@H]2O[C@H](CO)[C@@H](O)[C@H]2O)c2ncnc(N)c12` [Compound 14, 4-Amino-6-(benzylamino)-7-((2R,3R,4S,5R)-3,4-dihydroxy-5-(hydroxymethyl)tetrahydrofuran-2-yl)-7H-pyrrolo[2,3-d]pyrimidine-5-carbonitrile], the “binding / affinity in words” value in data set [1] is given as “little change in affinity”.

Regarding `Nc1ncnc2c1nc(N)n2[C@@H]1O[C@H](CO)[C@@H](O)[C@H]1O` [Compound 3, 8-aminoadenosine, reference compound], in data set [1] (SPR KD), the “fold increase in affinity compared to adenosine 1” value (“fold increase in affinity” for short) stood at 16 fold.

Take `COc1nc2c(N)ncnc2n1[C@@H]1O[C@H](CO)[C@@H](O)[C@H]1O` [Compound 6, (2R,3R,4S,5R)-2-(6-Amino-8-methoxy-9H-purin-9-yl)-5-(hydroxymethyl)tetrahydrofuran-3,4-diol]: the “binding / affinity in words” value in data set [1] is recorded as “complete loss of activity”.

With `CNc1c(C(N)=O)c2c(N)ncnc2n1[C@@H]1O[C@H](CO)[C@@H](O)[C@H]1O` [Compound 13, 4-Amino-7-((2R,3R,4S,5R)-3,4-dihydroxy-5-(hydroxymethyl)tetrahydrofuran-2-yl)-6-(methylamino)-7H-pyrrolo[2,3-d]pyrimidine-5-carboxamide], the “fold drop in affinity compared to sangivamycin 10” value in data set [1] (SPR KD, comparator 10) is reported as 7 fold.

As to `CNc1nc2c(N)ncnc2n1[C@@H]1O[C@H](C)[C@@H](O)[C@H]1O` [Compound 7, (2R,3R,4S,5R)-2-(6-Amino-8-(methylamino)-9H-purin-9-yl)-5-methyltetrahydrofuran-3,4-diol], in data set [1] (SPR KD, comparator 4), the “fold drop in affinity compared with 8-N-methylaminoadenosine 4” value is reported as 1.6 fold.

In the case of `NC(=O)c1cn([C@@H]2O[C@H](CO)[C@@H](O)[C@H]2O)c2ncnc(N)c12` [Compound 10, Sangivamycin, reference compound], the “fold increase in affinity” value in data set [1] (SPR KD) stood at 35 fold. Besides, the half-life entry in data set [1] (SPR off-rate analysis) was “too short to be observed”.

Turning to `Nc1ncnc2c1ccn2[C@@H]1O[C@H](CO)[C@@H](O)[C@H]1O` [Compound 8, Tubercidin, reference compound], the “fold increase in affinity” value in data set [1] (SPR KD) amounted to 4 fold.

`Nc1ncnc2c1nc(NCc1ccccc1)n2[C@@H]1O[C@H](CO)[C@@H](O)[C@H]1O` [Compound 15, (2R,3R,4S,5R)-2-(6-Amino-8-(benzylamino)-9H-purin-9-yl)-5-(hydroxymethyl)tetrahydrofuran-3,4-diol]: the “fold improvement in affinity compared to 8-N-methylaminoadenosine 4” value in data set [1] (SPR KD) was 12 fold.

In the case of `N#Cc1cn([C@@H]2O[C@H](CO)[C@@H](O)[C@H]2O)c2ncnc(N)c12` [Compound 9, Toyocamycin, reference compound], the “binding / affinity in words” value in data set [1] is listed as “comparable affinity to adenosine 1”.

In general, pKd refers to the Kd on a negative log10 scale, so that one unit is a factor of ten. As to `Nc1ncnc2c1ncn2[C@@H]1O[C@H](COP(=O)(O)OP(=O)(O)O)[C@@H](O)[C@H]1O` [Compound 16, adenosine diphosphate], at HSP70, the pKd is 6.30.
